Measurements reported in ChEMBL document CHEMBL1126819, “Amino acid bioisosteres: design of 2-quinolone derivatives as glycine-site N-methyl-D-aspartate receptor antagonists” (Bioorg Med Chem Lett, 1993).

What was measured:
[1] = target: Glutamate NMDA receptor; format: cell membranes, Rattus norvegicus, Membrane
Description: Displacement of [3H]L-689,560 from NMDA receptor glycine site of rat brain membranes

[2] = species on record: Rattus norvegicus; assay: Tested for ability to inhibit NMDA-induced depolarizations in rat cortical slices; format: functional
[3] = Dissociation constant pKa was determined; format: physicochemical

| SMILES | IC50 [1] [nM] | pKa [3] | Kb [2] [nM] |
| --- | --- | --- | --- |
| O=C1Nc2cc(Cl)ccc2CC1[N+](=O)[O-] (stereo not drawn) | 410 | – | 6700 |
| COC(=O)c1c(O)c2ccc(Cl)cc2[nH]c1=O | 6500 | – | – |
| Oc1nc2cc(Cl)ccc2c(O)c1C1CCCCC1 | ~100000 | – | – |
| C[C@@H]1CN(O)C(=O)[C@@H]1N | 2700 | – | – |
| O=C(Nc1ccccc1)N[C@H]1C[C@H](C(=O)O)Nc2cc(Cl)cc(Cl)c21 | 4 | ~4 | 110 |
| O=[N+]([O-])c1cc([N+](=O)[O-])c2nc(O)c(O)nc2c1 | 170 | 6.5 | 1200 |
| O=c1cc(O)c2ccc(Cl)cc2[nH]1 | > 300000 | – | – |
| O=C(O)c1cc(O)c2ccc(Cl)cc2n1 [7-CHLOROKYNURENIC ACID] | – | – | 7000 |

Continued, in another order:

| IC50 [1] [nM] | pKa [3] | SMILES | Kb [2] [nM] |
| --- | --- | --- | --- |
| 97 | – | Oc1nc2cc(Cl)cc(Cl)c2c(O)c1-c1ccccc1 | – |
| 14 | – | O=C(O)c1cc(O)c2c(I)cc(Cl)cc2n1 | 410 |
| 170 | 5.4 | O=c1[nH]c2cc(Cl)ccc2c(O)c1-c1ccccc1 | 880 |
| 6.9 | – | CCc1cc(Cl)cc2nc(O)c(-c3ccccc3)c(O)c12 | – |
| 3200 | – | O=C(c1ccccc1)c1c(O)nc2cc(Cl)ccc2c1O | – |
| 64 | – | O=C(O)c1cc(O)c2c(Cl)cc(Cl)cc2n1 | 1900 |
